Measured values taken from patent EP0600342A1, “Hispidospermidin and pharmaceutical compositions” (F. HOFFMANN-LA ROCHE AG, priority 1992, dated 1994).
pIC50: −log10 of the molar value. “Also recorded” adds a separate entry of the source.

Tests used:
[1] = test system: partially purified rat brain PLC; test: Inhibitory activity against PLC (hydrolysis of radiolabelled PI); type: biochemical; conditions: 250 µM PI substrate, 2 mM CaCl₂, Tris-acetate buffer pH 5.5, 20 min at 30 °C; read-out: IC₅₀
Experimental: Inhibitory activity of hispidospermidin against PLC was measured. The assay mixture (0.1 ml) contained 200 mM Tris-acetate buffer (pH 5.5), 2 mM CaCl₂, 250 µM PI (suspended in the buffer, specific activity: 800 dpm/nmole) and enzyme. In the standard assay, 20 µl of inhibitor in 15 mM Tis-HCl buffer (pH 7.5) was added to the substrate suspension (50 µl). The reaction was started with addition of the enzyme solution prepared from partially purified rat brain PLC (30 µl, ca. 5 µg protein) and incubated for 20 min. at 30 °C. The reaction was terminated by adding 0.3 ml of unlabeled PI (200 µM) solution containing 1 mg/ml of bovine serum albumin and 1 mM EGTA, followed by adding of 0.3 ml of 7.5% ice cold trichloroacetic acid containing 3 mM CaCl₂. Under the conditions, the enzyme hydrolyzed about 30 % of substrate in the assay mixture. As a positive control showing 100% inhibition of PLC, 20 µl of 25 mM EDTA was added to the assay mixture. The incubation mixture was kept on ice for 10 min asn centrifuged at 1,700 x g for 10 min. The radioactivity of an aliquot (0.2 ml) of the supernatant was measured by liquid scintillation counter (ALOKA).

Acute toxicity = type: in vivo; conditions: no species, dose or route stated
[2] = Solubility (physico-chemical properties); type: physicochemical; conditions: qualitative, by solvent

| Compound | pIC50 [1] | Acute toxicity (Acute toxicity) | Solubility [2] |
| --- | --- | --- | --- |
| C[C@@H]1CC[C@H]2[C@]13CC[C@@]1(C)O[C@]2(C)[C@@H](NCCCCN(C)CCCN(C)C)[C@H]1C3 [Hispidospermidin, hispidospermidin] | 4.80 | not observed | Soluble in MeOH, CHCl₃, acetone, acidic water; also recorded: Insoluble in water |
| CN1CCN(CCCN2c3ccccc3Sc3ccc(C(F)(F)F)cc32)CC1 [Trifluoperazine] | 3.82 | – | – |
| CCN(CC)CCCC(C)Nc1c2ccc(Cl)cc2nc2ccc(OC)cc12 (stereo not shown) [Quinacrine] | 3.50 | – | – |

Now from value to compound, other results behind:

| pIC50 [1] | Compound | Acute toxicity (Acute toxicity) | Solubility [2] |
| --- | --- | --- | --- |
| 4.23 | NCCCNCCCCNCCCN [Sperimine] | – | – |
| 4.52 | NC[C@H]1O[C@H](O[C@H]2[C@H](O)[C@@H](O[C@H]3O[C@H](CO)[C@@H](O)[C@H](N)[C@H]3O)[C@H](N)C[C@@H]2N)[C@H](N)C[C@@H]1O [Tobramycin] | – | – |
